From US8501713B2, “Drug combinations for the treatment of duchenne muscular dystrophy” (Summit Corporation PLC, priority 2007, dated 2013)

What follows are molecules tested on Utrophin A promoter linked to a luciferase reporter gene (assay: Luciferase reporter assay (murine H2K cells)). Details: Mus musculus, H2K mdx, luciferase level relative to control; H2K/mdx/Utro A reporter cells; compound 10 μM final concentration; read-out: Activity.
Format: cell-based
Method in brief: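 Compound at 10 μM final was applied for 48 hrs to plated H2K mdx myoblasts (33° C, 10% CO2, interferon-containing medium) bearing a luciferase gene under the utrophin A promoter. Luminescence from lysed cells served as read-out.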
In the case of CC(C)C(=S)Nc1ccc2oc(-c3ccc(Cl)cc3)nc2c1 [Example 275, N-(2-(4-chlorophenyl)benzo[d]oxazol-5-yl)-2-methylpropanethioamide], the activity at 10 µM is reported as 201 to 300%. Nc1ccc2sc(-c3ccc(Cl)cc3)nc2c1 [Example 276, 2-(4-chlorophenyl)benzo[d]thiazol-5-amine] showed an activity at 10 µM greater than 401%. With CC(C)C(=O)Nc1ccc2sc(-c3ccc(Cl)cc3)nc2c1 [Example 277, N-(2-(4-chlorophenyl)benzo[d]thiazol-5-yl)isobutyramide] the activity at 10 µM was 301 to 400%. CC(C)N(C)C(=O)c1ccc2oc(-c3ccc(Cl)cc3)nc2c1 [Example 278, 2-(4-chlorophenyl)-N-isopropyl-N-methylbenzo[d]oxazole-5-carboxamide] was tested, and the activity at 10 µM was 301 to 400%. CNC(=O)c1ccc2oc(-c3ccc(Cl)cc3)nc2c1 [Example 279, 2-(4-chlorophenyl)-N-methylbenzo[d]oxazole-5-carboxamide] gave an activity at 10 µM of 301 to 400%. With Nc1ccc2oc(CCc3ccccc3)nc2c1 [Example 280, 2-phenethylbenzo[d]oxazol-5-amine] the activity at 10 µM was greater than 401%. Work on CC(C)S(=O)(=O)c1ccc2oc(-c3ccc(Cl)cc3)nc2c1 [Example 281, 2-(4-chlorophenyl)-5-(isopropylsulfonyl)benzo[d]oxazole] yielded an activity at 10 µM greater than 401%. Nc1ccc2sc(-c3ccccc3Cl)nc2c1 [Example 282, 2-(2-chlorophenyl)benzo[d]thiazol-5-amine] was tested, and the activity at 10 µM was greater than 401%. Work on Nc1ccc2sc(-c3cccc(Cl)c3)nc2c1 [Example 283, 2-(3-chlorophenyl)benzo[d]thiazol-5-amine] yielded an activity at 10 µM greater than 401%. Molecule Nc1ccc2sc(-c3ccc(Cl)c(Cl)c3)nc2c1 [Example 284, 2-(3,4-dichlorophenyl)benzo[d]thiazol-5-amine] has an activity at 10 µM greater than 401%. With O=C(CCN1CCOCC1)Nc1ccc2oc(-c3ccccc3)nc2c1 [Example 285, 3-morpholino-N-(2-phenylbenzo[d]oxazol-5-yl)propanamide] the activity at 10 µM was less than 200%. Molecule O=[N+]([O-])c1ccc2oc(-c3ccc4c(c3)OCO4)nc2c1 [Example 286, 2-(benzo[d][1,3]dioxol-5-yl)-5-nitrobenzo[d]oxazole] has an activity at 10 µM of 301 to 400%. COC(=O)c1ccc(-c2ccc3oc(-c4ccc(Cl)cc4)nc3c2)cc1 [Example 287, methyl 4-(2-(4-chlorophenyl)benzo[d]oxazol-5-yl)benzoate] showed an activity at 10 µM of less than 200%. In the case of Clc1ccc(-c2nc3cc(Br)ccc3o2)cc1 [Example 288, 5-bromo-2-(4-chlorophenyl)benzo[d]oxazole], the activity at 10 µM is reported as greater than 401%. With Nc1ccc(-c2nc3cc(Cl)ccc3o2)cc1 [Example 289, 4-(5-chlorobenzo[d]oxazol-2-yl)aniline] the activity at 10 µM was greater than 401%. In the case of Nc1ccc(-c2nc3ccc(Cl)cc3o2)cc1 [Example 290, 4-(6-chlorobenzo[d]oxazol-2-yl)aniline], the activity at 10 µM is reported as 301 to 400%. Molecule Clc1ccc(-c2nc3cc(-c4ccc(N5CCOCC5)cc4)ccc3o2)cc1 [Example 291, 2-(4-chlorophenyl)-5-(4-morpholinophenyl)benzo[d]oxazole] has an activity at 10 µM of 201 to 300%. CCSc1cccc(-c2ccc3oc(-c4ccc(Cl)cc4)nc3c2)c1 [Example 292, 2-(4-chlorophenyl)-5-(3-(ethylthio)phenyl)benzo[d]oxazole] gave an activity at 10 µM of 201 to 300%. With CCS(=O)(=O)c1ccc2oc(-c3cccc(Cl)c3)nc2c1 [Example 293, 2-(3-chlorophenyl)-5-(ethylsulfonyl)benzo[d]oxazole] the activity at 10 µM was greater than 401%. With CC(=O)Nc1ccccc1-c1ccc2oc(-c3ccc(Cl)cc3)nc2c1 [Example 294, N-(2-(2-(4-chlorophenyl)benzo[d]oxazol-5-yl)phenyl)acetamide] the activity at 10 µM was less than 200%. For CC(C)C(=O)Nc1ccc2sc(-c3ccccc3Cl)nc2c1 [Example 295, N-(2-(2-chlorophenyl)benzo[d]thiazol-5-yl)isobutyramide], the activity at 10 µM was greater than 401%. In the case of CC(C)C(=O)Nc1ccc2sc(-c3cccc(Cl)c3)nc2c1 [Example 296, N-(2-(3-chlorophenyl)benzo[d]thiazol-5-yl)isobutyramide], the activity at 10 µM is reported as greater than 401%. Work on CC(C)C(=O)Nc1ccc2sc(-c3ccc(Cl)c(Cl)c3)nc2c1 [Example 297, N-(2-(3,4-dichlorophenyl)benzo[d]thiazol-5-yl)isobutyramide] yielded an activity at 10 µM greater than 401%. CCS(=O)(=O)c1ccc2oc(-c3ccccc3Cl)nc2c1 [Example 298, 2-(2-Chlorophenyl)-5-(ethylsulfonyl)benzo[d]oxazole] gave an activity at 10 µM of 201 to 300%. For Nc1ccc2oc(-c3ccc4c(c3)OCO4)nc2c1 [Example 299, 2-(benzo[d][1,3]dioxol-5-yl)benzo[d]oxazol-5-amine], the activity at 10 µM was 201 to 300%. CC(C)C(=O)Nc1ccc2oc(-c3ccc4c(c3)OCO4)nc2c1 [Example 300, N-(2-(benzo[d][1,3]dioxol-5-yl)benzo[d]oxazol-5-yl)isobutyramide] was tested, and the activity at 10 µM was 301 to 400%. CCS(=O)(=O)c1ccc2oc(-c3ccc(Cl)c(Cl)c3)nc2c1 [Example 301, 2-(3,4-diChlorophenyl)-5-(ethylsulfonyl)benzo[d]oxazole] was tested, and the activity at 10 µM was 201 to 300%. CC(C)C(=O)Nc1ccc2oc(CCc3ccccc3)nc2c1 [Example 302, N-(2-phenethylbenzo[d]oxazol-5-yl)isobutyramide] was tested, and the activity at 10 µM was less than 200%. CC(C)C(=O)Nc1ccc2sc(-c3cccc(Cl)c3Cl)nc2c1 [Example 303, N-(2-(2,3-dichlorophenyl)benzo[d]thiazol-5-yl)isobutyramide] showed an activity at 10 µM of 301 to 400%. In the case of CCS(=O)(=O)c1ccc2oc(-c3cccc(Cl)c3Cl)nc2c1 [Example 304, 2-(2,3-diChlorophenyl)-5-(ethylsulfonyl)benzo[d]oxazole], the activity at 10 µM is reported as less than 200%. Molecule COc1ccc(-c2ccc3oc(-c4ccc(Cl)cc4)nc3c2)cn1 [Example 305, 2-(4-chlorophenyl)-5-(6-methoxypyridin-3-yl)benzo[d]oxazole] has an activity at 10 µM of 201 to 300%. Molecule Nc1ccc2sc(-c3cccc(Cl)c3Cl)nc2c1 [Example 307, 2-(2,3-dichlorophenyl)benzo[d]thiazol-5-amine] has an activity at 10 µM of 301 to 400%. CC(c1ccccc1)c1nc2cc(N)ccc2o1 (stereo not drawn) [Example 308, 2-(1-phenylethyl)benzo[d]oxazol-5-amine] was tested, and the activity at 10 µM was less than 200%. CC(C)C(=O)Nc1ccc2oc(C(C)c3ccccc3)nc2c1 (stereo not drawn) [Example 309, N-(2-(1-phenylethyl)benzo[d]oxazol-5-yl)isobutyramide] showed an activity at 10 µM of less than 200%. Clc1ccc(-c2nc3cc4c(cc3o2)OCO4)cc1 [Example 310, 2-(4-chlorophenyl)-5,6-methylenedioxybenzoxazole] showed an activity at 10 µM of 301 to 400%. CC(C)C(=O)Nc1ccc2oc(-c3cc(Cl)ccc3Cl)nc2c1 [Example 311, N-(2-(2,5-dichlorophenyl)benzo[d]oxazol-5-yl)isobutyramide] showed an activity at 10 µM of less than 200%. Work on O=S(=O)(O)c1ccc2oc(-c3ccc(Cl)cc3)nc2c1 [Example 312, 2-(4-chlorophenyl)benzo[d]oxazole-5-sulfonic acid] yielded an activity at 10 µM of less than 200%.

Same assay, conditions: luciferase level relative to control; H2K/mdx/Utro A reporter cells; compound 10 μM final concentration
In the case of COc1ccc(-c2ccc3oc(-c4ccc(Cl)cc4)nc3c2)cn1 [Example 306, 2-(4-chlorophenyl)-5-(6-methoxypyridin-3-yl)benzo[d]oxazole], the Activity is reported as “+ (Up to 200% relative to control)”. In the case of O=C(O)c1cccc(-c2ccc3oc(-c4ccc(Cl)cc4)nc3c2)c1 [Example 313, 3-(2-(4-chlorophenyl)benzo[d]oxazol-5-yl)benzoic acidd], the Activity is reported as “+ (Up to 200% relative to control)”.
